This note sets out measurements from patent US12589101B2, “Cyclodextrin protein drug conjugates” (Regeneron Pharmaceuticals, Inc., priority 2017, dated 2026).

Values after ≈ are worked out from the molar mass of the structure shown. Where two headings read alike, the source gives them in different places. Numbered stars: 1 amine (or outer) side, 2 acyl side, 3 side chain; on linkers, the order of the positions; unused ones are H or OH. Square brackets hold non-standard residues; d marks the D form. Peptide text beside a SMILES is read from it. * marks the point of attachment. Dolaproine = CO[C@@H]([C@@H]1CCCN1)[C@@H](C)C(=O)O; Dil = CC[C@H](C)[C@H](NC)[C@@H](CC(=O)O)OC; PABC = O=C(OCc1ccc(N[*:1])cc1)[*:2]; DBCO = C1#Cc2ccccc2N(*)Cc2ccccc21; X1 = C[C@@H](N*)[C@@H](O)c1ccccc1; Cit = NC(=O)NCCC[C@H](N)C(=O)O; PEG4 = NCCOCCOCCOCCOCCC(=O)O; Suc = O=C(CCC(=O)[*:2])[*:1]; NMeV = CN[C@H](C(=O)O)C(C)C

Data set [1] is described as follows: Solubility of linker-payloads (LC-MS standard curve, saturated solution). It counts as physicochemical. The settings on record: for solubility at 10 min: thermodynamic from solid. The method, then:
The following test assays the solubility of the linker-payloads with a cyclodextrin moiety and the linker-payloads without a cyclodextrin moiety.
The test compounds were dissolved in DMSO to build a standard curve using LC-MS method A or B. The test sample was dissolved in water and sonicated for 10 minutes, and then centrifuged. The upper clear solution was analyzed using the same method A or B and the solubility was calculated based on its peak area.
Detailed test procedures were as follows: • 1. […] 0.05 mg of compound was suspended in water (1 mL) and sonicated for 10 minutes. After centrifugation, the clear solution above was collected to provide the saturated sample solution. • 3. All the standard solutions A, B, C, D, E and sample solution were analyzed by LCMS (using the same method and same injection volume) to obtain the peak areas. • 4. Calculate the standard curve according to the data of A-D (X=concentration, Y=peak areas). • 5. Calculate to obtain the concentration of saturated sample solution according to the functions obtained above.

The next data set deals with Cathepsin B (Homo sapiens, UniProt P07858). Nature of the data set: Cathepsin B cleavage rate of linker-payloads (Example 66). It counts as biochemical. The settings on record: for CapB (%): pH 5.0, 37° C. The method, then: Step 1: Preparation of Cathepsin B buffer: 0.1 M NaOAc/0.01M DTT (pH5.0) Dissolve 8.3 g/L NaOAc, 1.54 g/L DTT in deionized water. Adjust pH to 5.0 with HCl/sodium hydroxide.
Step 2: Test Cleavage Rate
• 1. Prepare 25 μM of testing sample: To a 2-mL-tube was added 0.5 mg of testing sample, followed by the addition of 0.2 mL of DMSO. The solution was added dropwise into 0.8 mL of 0.1 M NaOAc/0.01 M DTT buffer. The obtained mixtures were sonicated for 5 minutes to obtain clear and colorless solutions. The pH value of the solution was around 5 according to pH test strip. • 2. Preheat assay buffer: 0.1 M NaOAc/0.01 M DTT (pH 5.0) • 3. Spiking solutions for test compounds: 25 μM Spiking solutions for test compounds: Add 2 μL of 5 mM stock solution into 398 μL of 0.1 M NaOAc/0.01 M DTT buffer (pH 5.0). • 4. Prepare 0.47 μg/μL Cathepsin B in 50 mM NaOAc/1 mM EDTA (pH 5.0). Put on ice. • 5. Without CA074 samples: Add 4 μL of 0.47 μg/μL Cathepsin B into 196 μL of 25 μM Spiking solutions (from step 2), incubate the tubes at 37° C. • 6. With CA074 samples: Add 4 μL of 0.47 μg/μL Cathepsin B with 4 μL of 10 mM Inhibitor (CA074) into 196 μL of 25 μM Spiking solutions (from step 2), incubate the tubes. • 7. After quenching, shake the plate and centrifuge them at 14000 rpm. • 8. Transfer 50 μL of the supernatant from each well into a 96-well sample plate containing 50 μL of ultra pure water (Millipore, ZMQS50F01) for LC/MS analysis. Step 3: Test reference compounds: • 9. Preheat assay buffer: 100 mM Na/K phosphate, pH 6.0, with 1.33 mM EDTA and 2 mM DTT. • 10. Prepare 0.024 μg/μL Cathepsin B: Add 1 μL of 0.47 μg/μL Cathepsin B stock into 19 μL of assay buffer (from step 11). • 11. Add 2 μL of 0.024 μg/μL Cathepsin B (from step 12) to a opaque 96-well plate. • 12. Add 96 μL of assay buffer to each sample. • 13. Add 2 μL of the 10 mM substrate Z-RR-MNA (200 μM final concentration). • 14. For negative control (With inhibitor), add 2 μL of 10 mM Inhibitor (CA074): Immediately read the samples in a kinetic mode at excitation of 340 nm/emission of 425 nm (Read the plate every 30 Second for 3 min). Step 4: Stability of Cathepsin B in incubation samples: • 15. Take 5 μL of incubation samples into 93 μL of assay buffer (from step 11), and then add 2 μL of 10 mM substrate (Z-RR-MNA). • 16. Incubate the samples at 37° C. for 2 min. • 17. Read the samples at excitation of 340 nm/emission of 425 nm.

Setting [2] is: water, aqueous, read-out: Aq. Solubility.
Where [3] appears, read: water, water, read-out: Solubility.

Consider `CC[C@H](C)[C@@H]([C@@H](CC(=O)N1CCC[C@H]1[C@H](OC)[C@@H](C)C(=O)N[C@H](C)[C@@H](O)c1ccccc1)OC)N(C)C(=O)[C@@H](NC(=O)[C@H](C(C)C)N(C)C(=O)OCc1ccc(NC(=O)[C@H](CCCNC(N)=O)NC(=O)[C@@H](NC(=O)CCOCCOCCOCCOCCNC(=O)CCC(=O)N2Cc3ccccc3C#Cc3ccccc32)C(C)C)cc1)C(C)C` [Ex36] ({DBCO-Suc-PEG4}-V[Cit][PABC][NMeV]V[Dil][Dolaproine]-X1), for which the solubility at 10 min in data set [1] (setting [2]) and in data set [1] (setting [3]) was less than 100 µg/mL in each case. On Cathepsin B (Cathepsin B cleavage rate), the “CapB (%)” value is reported as “% % (60< % % ≤70 CapB (%))”.
On to `CC(C)[C@H](NC(=O)[C@@H](CCCCNC(=O)CCOCCOCCOCCOCCNC(=O)COC1CCCCCc2nnn(CC3OC4OC5C(CO)OC(OC6C(CO)OC(OC7C(CO)OC(OC8C(CO)OC(OC9C(CO)OC(OC3C(O)C4O)C(O)C9O)C(O)C8O)C(O)C7O)C(O)C6O)C(O)C5O)c21)NC(=O)CCOCCOCCOCCOCCNC(=O)CCC(=O)N1Cc2ccccc2C#Cc2ccccc21)C(=O)N[C@@H](C)C(=O)Nc1ccc2c(c1)[C@@]1(C)CCC[C@](C)(C(=O)NC(=O)[C@@]3(C)CCC[C@]4(C)c5cc(O)ccc5CC[C@@H]34)[C@@H]1CC2` (stereo partly drawn) [Ex53, DIBAC-suc-PEG4-D-Lys(PEG4-COT-CD)-Val-Ala-1d], for which the solubility at 10 min in data set [1] (water, Aq. Solubility (mg/mL)) came to 330 µg/mL (≈ 119 µM); in data set [1] (water, Solubility) it was 180 µg/mL (≈ 65 µM). Also, on Cathepsin B (Cathepsin B cleavage rate), the “CapB (%)” value is “% (50< % ≤60 CapB (%))”.
As to `CC[C@H](C)[C@@H]([C@@H](CC(=O)N1CCC[C@H]1[C@H](OC)[C@@H](C)C(=O)N[C@H](C)[C@@H](O)c1ccccc1)OC)N(C)C(=O)[C@@H](NC(=O)[C@H](C(C)C)N(C)C(=O)OCc1ccc(NC(=O)[C@H](CCCNC(N)=O)NC(=O)[C@@H](NC(=O)[C@@H](CCCCNC(=O)COC2CCCCCc3c2nnn3CC2OC3OC4C(CO)OC(OC5C(CO)OC(OC6C(CO)OC(OC7C(CO)OC(OC8C(CO)OC(OC2C(O)C3O)C(O)C8O)C(O)C7O)C(O)C6O)C(O)C5O)C(O)C4O)NC(=O)CCOCCOCCOCCOCCNC(=O)OC[C@@H]2[C@@H]3CCC#CCC[C@@H]32)C(C)C)cc1)C(C)C` (stereo partly drawn) [Ex42], the solubility at 10 min was greater than 1000 µg/mL in data set [1] (setting [2]) and 1000 µg/mL (≈ 352 µM) in data set [1] (setting [3]). Besides, the “CapB (%)” value at Cathepsin B (Cathepsin B cleavage rate) is on record as “% % (60< % % ≤70 CapB (%))”.
With `CC[C@H](C)[C@@H]([C@@H](CC(=O)N1CCC[C@H]1[C@H](OC)[C@@H](C)C(=O)N[C@H](C)[C@@H](O)c1ccccc1)OC)N(C)C(=O)[C@@H](NC(=O)[C@H](C(C)C)N(C)C(=O)OCc1ccc(NC(=O)[C@H](CCCNC(N)=O)NC(=O)[C@@H](NC(=O)[C@@H](CCCCNC(=O)COC2CCCCCc3c2nnn3CC2OC3OC4C(CO)OC(OC5C(CO)OC(OC6C(CO)OC(OC7C(CO)OC(OC8C(CO)OC(OC2C(O)C3O)C(O)C8O)C(O)C7O)C(O)C6O)C(O)C5O)C(O)C4O)NC(=O)CCOCCOCCOCCOCCNC(=O)CCC(=O)N2Cc3ccccc3C#Cc3ccccc32)C(C)C)cc1)C(C)C` (stereo partly drawn) [Ex41], the solubility at 10 min in data set [1] (setting [2]) worked out at 140 µg/mL (≈ 47.5 µM); in data set [1] (setting [3]) it was 250 µg/mL (≈ 84.8 µM). Further, on Cathepsin B (Cathepsin B cleavage rate), the “CapB (%)” value was “% % (70< % % ≤80 CapB (%))”.
`CCCC1O[C@@H]2C[C@H]3[C@@H]4C[C@H](F)C5=CC(=O)C=C[C@]5(C)[C@@]4(F)[C@@H](O)C[C@]3(C)[C@]2(C(=O)COc2ccc(NC(=O)OCc3ccc(NC(=O)[C@H](CCCNC(N)=O)NC(=O)[C@@H](NC(=O)CCOCCOCCOCCOCCNC(=O)CCC(=O)N4Cc5ccccc5C#Cc5ccccc54)C(C)C)cc3)cc2)O1` (stereo partly drawn) [Ex61, DIBAC-suc-PEG4-vcPAB-1i]: in data set [1] (10 min), the Solubility is 0.01 mg/ mL mg/mL. Besides, the solubility at 10 min in data set [1] (water, Aq. Solubility (mg/mL)) is 10 µg/mL (≈ 6.68 µM); in data set [1] (water, Solubility), less than 10 µg/mL. The same compound returned a capB at Cathepsin B (Cathepsin B cleavage rate, Table 8A) of less than 5%. In addition, on Cathepsin B (Cathepsin B cleavage rate), the “CapB (%)” value is “% (% ≤50 CapB (%))”.
Turning to `CCC[C@@H]1O[C@@H]2C[C@H]3[C@@H]4CCC5=CC(=O)C=C[C@]5(C)[C@H]4[C@@H](O)C[C@]3(C)[C@]2(C(=O)COc2ccc(NC(=O)[C@H](C)NC(=O)[C@@H](NC(=O)[C@@H](CCCCNC(=O)COC3CCCCCc4c3nnn4CC3OC4OC5C(CO)OC(OC6C(CO)OC(OC7C(CO)OC(OC8C(CO)OC(OC9C(CO)OC(OC3C(O)C4O)C(O)C9O)C(O)C8O)C(O)C7O)C(O)C6O)C(O)C5O)NC(=O)CCOCCOCCOCCOCCNC(=O)CCC(=O)N3Cc4ccccc4C#Cc4ccccc43)C(C)C)cc2)O1` (stereo partly drawn) [Ex47], the “aqueous solubility (in words)” value in data set [1] (water) is recorded as “below detectable levels”. For the same compound, the solubility at 10 min in data set [1] (setting [2]) is less than 100 µg/mL. The “Cathepsin B cleavage rate” value on Cathepsin B is on record as 14%. Further, the “CapB (%)” value on Cathepsin B (Cathepsin B cleavage rate) was “% (% ≤50 CapB (%))”.
The compound `CC(C)[C@H](NC(=O)[C@@H](CCCCNC(=O)CCOCCOCCOCCOCCNC(=O)COC1CCCCCc2nnn(CC3OC4OC5C(CO)OC(OC6C(CO)OC(OC7C(CO)OC(OC8C(CO)OC(OC9C(CO)OC(OC3C(O)C4O)C(O)C9O)C(O)C8O)C(O)C7O)C(O)C6O)C(O)C5O)c21)NC(=O)CCOCCOCCOCCOCCNC(=O)CCC(=O)N1Cc2ccccc2C#Cc2ccccc21)C(=O)N[C@@H](CCCNC(N)=O)C(=O)Nc1ccc(COC(=O)NCCOc2ccc3c(c2)[C@@]2(C)CCC[C@](C)(C(=O)NC(=O)[C@@]4(C)CCC[C@]5(C)c6cc(O)ccc6CC[C@@H]45)[C@@H]2CC3)cc1` (stereo partly drawn) [Ex50] came in with a solubility at 10 min in data set [1] (water, Solubility) of 330 µg/mL (≈ 108 µM). Moreover, the “CapB (%)” value on Cathepsin B (Cathepsin B cleavage rate) is “% (% ≤50 CapB (%))”.
As for `CCC[C@@H]1O[C@@H]2C[C@H]3[C@@H]4CCC5=CC(=O)C=C[C@]5(C)[C@H]4[C@@H](O)C[C@]3(C)[C@]2(C(=O)COc2ccc(NC(=O)[C@H](C)NC(=O)[C@@H](NC(=O)CCOCCOCCOCCOCCNC(=O)CCC(=O)N3Cc4ccccc4C#Cc4ccccc43)C(C)C)cc2)O1` [Ex45, 1-(4-{2-azatricyclo[10.4.0.0^4,9]hexadeca-1(12),4(9),5,7,13,15-hexaen-10-yn-2-yl}-4-oxobutanamido)-N-[(1S)-1-{[(1S)-1-[(4-{2-[(1S,2S,4R,6R,8S,9S,11 S,12S,13R)-11-hydroxy-9,13-dimethyl-16-oxo-6-propyl-5,7-dioxapentacyclo[10.8.0.0^2,9.0^4,8.0^13,18]icosa-14,17-dien-8-yl]-2-oxoethoxy}phenyl)carbamoyl]ethyl]carbamoyl}-2-methylpropyl]-3,6,9,12-tetraoxapentadecan-15-amide], the solubility at 10 min in data set [1] (setting [2]) and in data set [1] (setting [3]) was less than 100 µg/mL each time. For the same compound, the “CapB (%)” value on Cathepsin B (Cathepsin B cleavage rate) is “% (% ≤50 CapB (%))”.
`CCCC1O[C@@H]2C[C@H]3[C@@H]4C[C@H](F)C5=CC(=O)C=C[C@]5(C)[C@@]4(F)[C@@H](O)C[C@]3(C)[C@]2(C(=O)COc2ccc(NC(=O)[C@H](C)NC(=O)[C@@H](NC(=O)[C@@H](CCCCNC(=O)COC3CCCCCc4c3nnn4CC3OC4OC5C(CO)OC(OC6C(CO)OC(OC7C(CO)OC(OC8C(CO)OC(OC9C(CO)OC(OC3C(O)C4O)C(O)C9O)C(O)C8O)C(O)C7O)C(O)C6O)C(O)C5O)NC(=O)CCOCCOCCOCCOCCNC(=O)CCC(=O)N3Cc4ccccc4C#Cc4ccccc43)C(C)C)cc2)O1` (stereo partly drawn) [Ex63, DIBAC-suc-PEG4-dLys(COT-CD)-Val-Ala-1i]: the “CapB (%)” value on Cathepsin B (Cathepsin B cleavage rate) was “% (% ≤50 CapB (%))”.
